In US20130096103A1, “IMIDAZOQUINOLINE COMPOUNDS” (NOVARTIS VACCINES & DIAGNOSTICS, INC., priority 2004, published 2013):

Legend:
[1] = tested on: BALB/c mice; test: In vivo adjuvant study: Env-specific serum IgG1 ELISA; conditions: vaccinated day 0 and 28, sera 6-7 d after 2nd vaccination
Text: (§1) In phosphate-buffered saline (PBS), 25 micrograms gp120dV2EnvSF162 antigen (recombinant gp120 protein derived from sequence of HIV-1 strain SF162—the V2 domain was deleted; Pharm Res. 2004 Dec. 21(12):2148-52) as mixed with 50 microliters of MF59 adjuvant, followed the by the addition of 0, 1, 5, or 25 micrograms of a small molecule immune potentiator (SMIP) and adjusted to 100 microliters with PBS. 50 microliters of the solution was subsequently injected into both the left and right tibialis anterior muscles of female BALB/c mice (Day 0), for a total volume of 100 microliters per mouse. Four weeks later (Day 28), 50 microliters of the solution was again injected into both the left and right tibialis anterior muscles of the mouse. Seven days after the second vaccination ([…]), serum samples were collected, and a day later (day 35) spleens were removed. Serum samples were assayed by Env-specific serum IgG2a ELISA and Env-specific serum IgG1 ELISA. Spleen samples were assayed by Env-specific, cytokine-producing splenic CD4 and CD8 T cells.
(§2) BALB/c mise were immunized 2× with HIV gp120 formulated in MF59 +/− the indicated SMIPs (25 μg/ml). CpG 1826 (25 μg/ml) was used as a positive control. […] post-second serum was collected from the immunized mice and the anti-gp120-specific serum IgG2a (FIG. 4A) and IgG1 (FIG. 4B) geometric mean titers (GMT) were determined. In addition, spleens were also harvested from the immunized mice and ex vivo anti-gp120-specific T cell responses (FIG. 4C) were determined by intracellular cytokine staining for IL-2 and IFN-g. Results are percentage of antigen-specific T cells expressing the indicated cytokine.

[2] = tested on: BALB/c mice; test: In vivo adjuvant study: Env-specific cytokine-producing splenic CD4 and CD8 T cells; conditions: spleens 6-7 d after 2nd vaccination
Text: as §1, §2

[3] = tested on: BALB/c mice; test: In vivo adjuvant study: Env-specific serum IgG2a ELISA; conditions: vaccinated day 0 and 28, sera 6-7 d after 2nd vaccination
Text: as §1, §2

[4] = Pope et al. Cellular Immunology 162: 333-339 (1995); cited from earlier work
[5] = 1 μg added to gp120dV2/MF59 base vaccine
[6] = 5 μg added to gp120dV2/MF59 base vaccine
[7] = 25 μg added to gp120dV2/MF59 base vaccine

| Molecule | Env-spec IgG1 titer, Geo mean [1, 5] | Env-spec IgG1 titer, Geo mean [1, 6] | Env-spec IgG1 titer, Geo mean [1, 7] | Env-spec CD4 (%) IFN-γ+ [2, 5] | Env-spec CD4 (%) IL-2+ [2, 5] | Env-spec CD8 (%) IFN-γ+ [2, 5] | Env-spec CD8 (%) IL2+ [2, 5] | Env-spec CD4 (%) IFN-γ+ [2, 6] | Env-spec CD4 (%) IL-2+ [2, 6] | Env-spec CD8 (%) IFN-γ+ [2, 6] | Env-spec CD8 (%) IL2+ [2, 6] | Env-spec CD4 (%) IFN-γ+ [2, 7] | Env-spec CD4 (%) IL-2+ [2, 7] | Env-spec CD8 (%) IFN-γ+ [2, 7] | Env-spec CD8 (%) IL2+ [2, 7] | Env-spec IgG2a titer, Geo mean [3, 5] | Env-spec IgG2a titer, Geo mean [3, 6] | Env-spec IgG2a titer, Geo mean [3, 7] | concentration causing useful production of TNF-α [4] |
| --- | --- | --- | --- | --- | --- | --- | --- | --- | --- | --- | --- | --- | --- | --- | --- | --- | --- | --- | --- |
| CCCSc1nc2c(N)nc3ccccc3c2n1CC(C)C [Example 11, 1-(2-methylpropyl)-2-(propylthio)-1H-imidazo[4,5-c]quinolin-4-amine] | 35177 | 33477 | 34199 | 0.04% | 0.17% | 0.08% | 0.17% | 0.04% | 0.42% | 0.19% | 0.22% | 0.04% | 0.42% | 0.18% | 0.22% | 512 | 2922 | 6507 |  |
| C=CCn1c(=O)n([C@@H]2O[C@H](CO)[C@@H](O)[C@H]2O)c2nc(N)[nH]c(=O)c21 [Loxoribine] |  |  |  |  |  |  |  |  |  |  |  |  |  |  |  |  |  |  | 300 µM |
| CCCN(C)c1nc2c(N)nc3ccccc3c2n1CC(C)(C)O [Example 19, 1-{4-amino-2-[methyl(propyl)amino]-1H-imidazo[4,5-c]quinolin-1-yl}-2-methylpropan-2-ol] | 30536 | 29502 | 38255 | 0.07% | 0.14% | 0.21% | 0.14% | 0.04% | 0.40% | 0.35% | 0.37% | 0.29% | 0.76% | 0.07% | 0.10% | 1215 | 10104 | 18733 |  |
| ODN-1826 [reference compound] |  |  | 30188 |  |  |  |  |  |  |  |  | 0.32% | 0.47% | 0.15% | 0.12% |  |  | 201306 |  |
